Where “and” joins values, the source holds several entries; their conditions need not be identical. Equal values may be shown once.
Tests used:
[1] = molecular target: T1, slo1 (cbv1 isoform)+β1 BK channels (Rattus norvegicus, UniProt P97678); test: Channel activity (NPo) in POPE/POPS planar lipid bilayers, cbv1+β1; type: biochemical
T1 construct: made in house; host or cells: CHO cells, transient transfection; sucrose-gradient membrane preparation
Description: BK channel-forming slo1 cDNA (cbv1 isoform; AY330293) was cloned from rat cerebral artery SM cells, and inserted into pcDNA3.1 vector as described. BK β1 cDNA (KCNMB1 product; NP_011452; FJ154955) were isolated from rat cerebral artery SM cells and cloned as described. β4 cDNA (KCNMB4; NP_055320; AY028605) were generously provided by Dr. Ligia Toro. CHO cells were transiently transfected with cbv1 ± β1-, or β4-carrying pcDNA3.1 using X-tremeGENE HP (Sigma-Aldrich). Mutations to β1/4 cDNAs were conducted by Genscript, with sequences being confirmed to be >99% identical to KCNMB1 product; NP_011452 or β4 KCNMB4; NP_055320; respectively. β1/4 and mutant constructs were flag-tagged (DYKDDDDK-tag) by Genscript services for subsequent immunoprecipitation and use in microscale thermophoresis studies.
Proteins for electrophysiological recordings in artificial lipid bilayers remained untagged. Cells were transiently transfected as described above, pelleted and re-suspended on ice in 10 ml of buffer solution of the following composition (mM): 30 KCl, 2 MgCl2, 10 HEPES, 5 EGTA; pH 7.2. A membrane preparation was obtained using a sucrose gradient as described. Aliquots were stored at −80 °C. BK channel-mediated ionic current was recorded in planar lipid bilayers consisting of a POPE:POPS 3:1 (w/w) mixture. Lipid mixtures were dried under N2 and re-suspended in 25 mg/ml of n-decane BK currents following incorporation into horizontal bilayers at 300/30 mM cis/trans gradient as detailed elsewhere. Ion currents were obtained during a 10-min gap-free recording at 0 mV in the presence of 0.01, 10 μM PROG, 10 μM PROG-oxime, or vehicle control (dimethyl sulfoxide; DMSO). Currents were obtained in gap-free mode using a Warner BC-525D amplifier, low pass-filtered at 1 kHz and sampled at 5 kHz with Digidata 1550B/pCLAMP 11 (Molecular Devices). For comparison with previous data from us[16],[17],[45]–[47], studies were conducted at 20–22 °C. […]
Patch-clamp and bilayer data were analyzed using Clampfit 10.7 software (Molecular Devices). NPo was used as an index of channel steady-state activity where N = number of channels in the patch (defined as a maximal number of opening levels at Po≤1) and Po=single channel open probability. Drug-induced NPo changes were determined by comparing baseline NPo (i.e., NPo with the patch/cell perfused with bath solution) to the NPo from the same patch/cell exposed to the agent under study (DMSO/PROG/oxime) dissolved in bath solution. NPo and mean open time values were automatically calculated using Clampfit 10.7, the latter using a 50% threshold detection event.

[2] = tested on: pial arteries branching out of the MCA (C57BL/6J); test: Cerebral artery diameter through cranial window in vivo; design: species or system mouse; conditions: individual replicates
Description: Eight-12 week-old male and female C57BL/6J mice were anesthetized with a mixture of xylazine/ketamine (12/100 mg per kg) and kept anesthetized for the duration of the experiment with subsequent ketamine doses (50 mg/kg of weight) as needed. A catheter was inserted into the carotid artery so that the infusion went straight to the brain rather than towards the thoracic cavity. An area of the skull was cleared of tissue and thinned to expose the branching arteries originating from the MCA on the side the catheter was inserted, above the zygomatic arch, between the ear and eye of the skull[19],[34]. The exposed arteries branching out from the MCA were monitored using a Leica MC170 HD microscope with a mounted camera (Leica M125 C) connected to a computer monitor. Drugs were diluted to their final concentration in sodium saline (0.9% NaCl) and administered via catheter at 0.1 ml/25 g of weight. Cranial window images before and after drug administration were acquired every 60 seconds for subsequent analysis.

T1 sequence (P97678 whole entry, canonical isoform): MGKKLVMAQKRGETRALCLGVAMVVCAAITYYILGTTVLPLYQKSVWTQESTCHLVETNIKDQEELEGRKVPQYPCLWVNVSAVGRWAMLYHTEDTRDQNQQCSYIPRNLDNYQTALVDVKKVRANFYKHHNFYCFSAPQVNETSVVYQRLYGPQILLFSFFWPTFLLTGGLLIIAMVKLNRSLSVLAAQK
T1 sequence (Q62976 1-1148 isoform Q62976-2 partner): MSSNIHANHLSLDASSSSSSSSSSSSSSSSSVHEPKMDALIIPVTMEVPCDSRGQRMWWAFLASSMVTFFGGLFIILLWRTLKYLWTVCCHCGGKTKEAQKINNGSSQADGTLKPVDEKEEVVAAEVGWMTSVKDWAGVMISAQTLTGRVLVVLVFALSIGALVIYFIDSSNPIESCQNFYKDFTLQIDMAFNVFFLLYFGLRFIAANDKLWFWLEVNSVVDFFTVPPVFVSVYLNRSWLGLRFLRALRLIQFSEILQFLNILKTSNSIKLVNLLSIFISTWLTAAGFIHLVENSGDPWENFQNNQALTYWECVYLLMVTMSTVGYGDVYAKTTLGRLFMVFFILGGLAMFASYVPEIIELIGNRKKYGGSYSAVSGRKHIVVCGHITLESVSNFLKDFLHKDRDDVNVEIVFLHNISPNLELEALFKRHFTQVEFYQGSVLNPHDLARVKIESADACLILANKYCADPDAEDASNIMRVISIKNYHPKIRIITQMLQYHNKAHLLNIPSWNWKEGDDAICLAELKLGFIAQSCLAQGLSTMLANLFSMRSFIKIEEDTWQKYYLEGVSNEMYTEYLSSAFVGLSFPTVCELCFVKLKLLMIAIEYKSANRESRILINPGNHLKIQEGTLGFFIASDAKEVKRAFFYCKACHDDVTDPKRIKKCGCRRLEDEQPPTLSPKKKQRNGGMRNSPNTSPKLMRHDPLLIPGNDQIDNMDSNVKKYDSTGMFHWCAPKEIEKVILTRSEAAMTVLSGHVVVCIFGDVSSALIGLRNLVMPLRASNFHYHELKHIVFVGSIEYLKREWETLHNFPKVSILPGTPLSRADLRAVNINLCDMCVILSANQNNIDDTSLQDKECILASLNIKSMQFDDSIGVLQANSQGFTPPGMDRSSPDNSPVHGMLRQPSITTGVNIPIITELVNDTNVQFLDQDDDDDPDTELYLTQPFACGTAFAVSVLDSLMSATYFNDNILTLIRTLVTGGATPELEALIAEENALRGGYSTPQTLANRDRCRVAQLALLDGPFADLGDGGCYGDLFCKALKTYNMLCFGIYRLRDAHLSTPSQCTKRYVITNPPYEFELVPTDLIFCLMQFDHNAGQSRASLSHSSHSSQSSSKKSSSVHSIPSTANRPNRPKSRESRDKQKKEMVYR

CC(=O)C1CCC2C3CCC4=CC(=NOCC(=O)O)CCC4(C)C3CCC12C (stereo not drawn) [PROG-oxime, progesterone 3-(O-carboxymethyl)oxime]
NPo/NPobasal ([1]; 10 μM PROG-oxime, min 8, single records): 1.05 and 1.498 and 1.058 and 0.7956 and 1.316 | NPo/NPobasal ([1]; 10 μM PROG-oxime, min 9, single records): 1.025 and 1.49 and 0.9987 and 0.8873 and 1.604 | NPo/NPobasal ([1]; 10 μM PROG-oxime, min 10, single records): 1.45 and 1.329 and 1.113 and 0.8109 and 1.283 | maximal changes in channel activity (NPo/NPobasal) ([1]; 10 μM PROG-oxime, single records (Fig 3E)): 1.0077 and 0.9962 and 1.086 and 1.4825 and 1.776 and 1.183 | action on channel activity (NPo) ([1]; 10 μM, cis chamber, vs DMSO): did not differ from that evoked by vehicle control | artery diameter, normalized to time 0 ([2]; Fig 7C, time 0, male mice): 1 (4×) and 1.00 | artery diameter, normalized to time 0 ([2]; Fig 7C, time 1, male mice): 0.9683 and 1.00 and 1.045 and 1.037 and 1.174 | artery diameter, normalized to time 0 ([2]; Fig 7C, time 2, male mice): 0.9748 and 0.99 and 1.075 and 1.065 and 0.9672 | artery diameter, normalized to time 0 ([2]; Fig 7C, time 3, male mice): 0.9521 and 0.88 and 1.045 and 0.8398 and 1.066 | artery diameter, normalized to time 0 ([2]; Fig 7C, time 4, male mice): 0.9683 and 0.84 and 0.9351 and 0.8169 and 0.9018 | artery diameter, normalized to time 0 ([2]; Fig 7C, time 5, male mice): 1.008 and 1.01 and 1.026 and 0.9472 and 0.9098 | artery diameter, normalized to time 0 ([2]; Fig 7C, time 6, male mice): 1.041 and 0.92 and 0.9494 and 0.9176 and 1.063 | artery diameter, normalized to time 0 ([2]; Fig 7C, time 7, male mice): 0.9184 and 0.90 and 0.9635 and 0.9259 and 0.9935 | artery diameter, normalized to time 0 ([2]; Fig 7C, time 8, male mice): 0.9894 and 0.92 and 0.9405 and 0.9778 and 0.9794 | artery diameter, normalized to time 0 ([2]; Fig 7C, time 9, male mice): 0.8438 and 0.91 and 1.0031 and 0.973 and 0.9169 | artery diameter, normalized to time 0 ([2]; Fig 7D, time 0, female mice): 1.00 and 1 (4×) | artery diameter, normalized to time 0 ([2]; Fig 7D, time 1, female mice): 0.90 and 1.017 and 1.077 and 0.9108 and 0.9562 | artery diameter, normalized to time 0 ([2]; Fig 7D, time 2, female mice): 0.98 and 0.9692 and 1.08 and 1.015 (2×) | artery diameter, normalized to time 0 ([2]; Fig 7D, time 3, female mice): 0.96 and 0.8809 and 1.0998 and 0.9303 and 1.006 | artery diameter, normalized to time 0 ([2]; Fig 7D, time 4, female mice): 0.71 and 0.9764 and 0.9876 and 0.9569 and 0.8502 | artery diameter, normalized to time 0 ([2]; Fig 7D, time 5, female mice): 0.75 and 0.9574 and 1.009 and 0.7872 and 0.892 | artery diameter, normalized to time 0 ([2]; Fig 7D, time 6, female mice): 0.76 and 0.8573 and 1.009 and 0.8606 and 0.8869 | artery diameter, normalized to time 0 ([2]; Fig 7D, time 7, female mice): 0.82 and 0.8681 and 0.9667 and 0.8496 and 0.8082 | artery diameter, normalized to time 0 ([2]; Fig 7D, time 8, female mice): 0.87 and 0.8872 and 1.0207 and 0.8807 and 0.7534 | artery diameter, normalized to time 0 ([2]; Fig 7D, time 9, female mice): 0.74 and 0.8893 and 0.9136 and 0.9444 and 0.8332 | artery diameter, normalized (PROG vs oxime comparison) ([2]; Fig 7E, same values as Fig 7C time 7, male mice): 0.8986 | artery diameter, normalized (PROG vs oxime comparison) ([2]; Fig 7F, same values as Fig 7D time 7, female mice): 0.97 and 0.85 and 0.81

Reference: paper PMC10636063, “Progesterone activation of β1-containing BK channels involves two binding sites” (Nature Communications, 2023)
